Assays:
[1] = (§1) Electrical activity assay on cell lines treated with a given drug. DMSO was used as a vehicle and a control, unblinded dofetilide was used as a control.; conditions: human, ipsc-cm
[2] = as §1; format: ADME, cell-based; design: FPDc: unit not given here; conditions: human, ipsc-cm
[3] = as §1; format: cell-based; design: APDc: unit not given here; conditions: human, ipsc-cm
[4] = as §1; conditions: human, ipsc-cm; remark: listed apart in the source
[5] = as §1; format: ADME, cell-based; design: FPDc: unit not given here; conditions: human, ipsc-cm, 0.01 µM; concentration (um) 0.01 uM
[6] = as §1; format: ADME, cell-based; conditions: human, ipsc-cm, 0.001 µM; concentration (um) 0.001 uM
[7] = as §1; format: ADME, cell-based; conditions: human, ipsc-cm, 0.01 µM; concentration (um) 0.01 uM
[8] = as §1; conditions: human, ipsc-cm; remark: listed apart in the source
[9] = 0.01 µM, concentration (um) 0.01 uM
[10] = 0.1 µM, concentration (um) 0.1 uM
[11] = 10 µM, concentration (um) 10 uM
[12] = 0.001 µM, concentration (um) 0.001 uM
[13] = 0.0001 µM, concentration (um) 0.0001 uM
[14] = 3.169 µM, concentration (um) 3.16912 uM
[15] = 10.01 µM, concentration (um) 10.0144 uM
[16] = 31.65 µM, concentration (um) 31.6456 uM
[17] = 100 µM, concentration (um) 100 uM

CN1CCN(CCCCN2C(=O)CN(/N=C/c3ccc(-c4ccc(Cl)cc4)o3)C2=O)CC1 [AZIMILIDE]
FPD measurement ([1]; 0.01 µM): 55.32 FPDc
FPDc ([1]; 0.01 µM): 55.32
FPD measurement ([1]; 0.1 µM): 56.52 FPDc
FPDc ([1]; 0.1 µM): 56.52
FPD measurement ([1]; 1 µM): 77.06 FPDc
FPDc ([1]; 1 µM): 77.06
FPD measurement ([1]; 10 µM): 5 Values Out Of 5 Were Excluded Due To Quiescence Or 0 Fpdc
FPDc ([1]; 10 µM): 5 Values Out Of 5 Were Excluded Due To Quiescence Or 0 Fpdc
FPDc [2, 9]: 0.03892
FPDc [2, 10]: 0.04044
FPDc ([2]; 1 µM, concentration (um) 1 uM): 0.04651
FPDc [2, 11]: 0.06031
APDc [3, 9]: 52.41
FPD measurement [3, 9]: 52.41 FPDc
APDc [3, 10]: 47.87
FPD measurement [3, 10]: 47.87 FPDc
APDc ([3]; 1 µM, concentration (um) 1 uM): 63.58
FPD measurement ([3]; 1 µM, concentration (um) 1 uM): 63.58 FPDc
APDc [3, 11]: 121.3
FPD measurement [3, 11]: 121.3 FPDc
FPDc ([4]; 0.01 µM): 73.84
FPDc ([4]; 0.1 µM): 69.12
FPDc ([4]; 1 µM): More Than Half The Wells Had A Quiescence Event Or Fpdc Readings Of 0
FPDc ([4]; 10 µM): More Than Half The Wells Had A Quiescence Event Or Fpdc Readings Of 0

CC(C)COCC(CN(Cc1ccccc1)c1ccccc1)N1CCCC1 (stereo unspecified) [BEPRIDIL]
FPDc [2, 9]: 0.04073
FPDc [2, 10]: 0.0376
FPDc ([2]; 1 µM, concentration (um) 1 uM): 0.04541
FPD measurement [2, 11]: More Than Half The Wells Had A Quiescence Event Or Fpdc Readings Of 0
FPDc [2, 11]: More Than Half The Wells Had A Quiescence Event Or Fpdc Readings Of 0
APDc [3, 9]: 52.45
FPD measurement [3, 9]: 52.45 FPDc
APDc [3, 10]: 43.71
FPD measurement [3, 10]: 43.71 FPDc
APDc ([3]; 1 µM, concentration (um) 1 uM): 57.33
FPD measurement ([3]; 1 µM, concentration (um) 1 uM): 57.33 FPDc
FPDc ([4]; 0.01 µM): 70.33
FPDc ([4]; 0.1 µM): 77.75
FPD measurement ([4]; 1 µM): 5 Values Out Of 5 Were Excluded Due To Quiescence Or 0 Apdc
FPDc ([4]; 1 µM): 78.3
FPD measurement ([4]; 10 µM): More Than Half The Wells Had A Quiescence Event Or Apdc Readings Of 0
FPDc ([4]; 10 µM): More Than Half The Wells Had A Quiescence Event Or Fpdc Readings Of 0

COc1ccc([C@@H]2Sc3ccccc3N(CCN(C)C)C(=O)[C@@H]2OC(C)=O)cc1 [DILTIAZEM]
FPD measurement ([1]; 0.01 µM): 53.63 FPDc
FPDc ([1]; 0.01 µM): 53.63
FPD measurement ([1]; 0.1 µM): 45.42 FPDc
FPDc ([1]; 0.1 µM): 45.42
FPD measurement ([1]; 1 µM): 28.2 FPDc
FPDc ([1]; 1 µM): 28.2
FPD measurement ([1]; 10 µM): 13.87 FPDc
FPDc ([1]; 10 µM): 13.87
FPDc [2, 9]: 0.0252
FPD measurement [2, 10]: More Than Half The Wells Had A Quiescence Event Or Fpdc Readings Of 0
FPDc [2, 10]: More Than Half The Wells Had A Quiescence Event Or Fpdc Readings Of 0
FPD measurement ([2]; 1 µM, concentration (um) 1 uM): More Than Half The Wells Had A Quiescence Event Or Fpdc Readings Of 0
FPDc ([2]; 1 µM, concentration (um) 1 uM): More Than Half The Wells Had A Quiescence Event Or Fpdc Readings Of 0
FPD measurement [2, 11]: More Than Half The Wells Had A Quiescence Event Or Fpdc Readings Of 0
FPDc [2, 11]: More Than Half The Wells Had A Quiescence Event Or Fpdc Readings Of 0
APDc [3, 9]: 56.41
FPD measurement [3, 9]: 56.41 FPDc
APDc [3, 10]: 49.22
FPD measurement [3, 10]: 49.22 FPDc
APDc ([3]; 1 µM, concentration (um) 1 uM): 40.25
FPD measurement ([3]; 1 µM, concentration (um) 1 uM): 40.25 FPDc
APDc [3, 11]: 32.58
FPD measurement [3, 11]: 32.58 FPDc

C[S+](C)[O-] [DIMETHYL SULFOXIDE]
FPDc [5]: 50.28
FPD measurement ([1]; 0.001 µM): 55.35 FPDc
FPDc ([1]; 0.001 µM): 55.35
FPD measurement [6]: 49.93 FPDc
FPDc [6]: 72 Values Out Of 72 Were Excluded Due To Quiescence Or 0 Fpdc
FPDc [2, 12]: 0.03393
FPD measurement [7]: 25 Values Out Of 25 Were Excluded Due To Quiescence Or 0 Apdc
FPDc [7]: 20.63
FPDc ([4]; 1 µM): 70.37

CCCCCCCN(CC)CCCC(O)c1ccc(NS(C)(=O)=O)cc1 (stereo unspecified) [IBUTILIDE]
FPD measurement ([1]; 0.0001 µM): 56.72 FPDc
FPDc ([1]; 0.0001 µM): 56.72
FPD measurement ([1]; 0.001 µM): 63.97 FPDc
FPDc ([1]; 0.001 µM): 63.97
FPD measurement ([1]; 0.01 µM): More Than Half The Wells Had A Quiescence Event Or Fpdc Readings Of 0
FPDc ([1]; 0.01 µM): More Than Half The Wells Had A Quiescence Event Or Fpdc Readings Of 0
FPD measurement ([1]; 0.1 µM): More Than Half The Wells Had A Quiescence Event Or Fpdc Readings Of 0
FPDc ([1]; 0.1 µM): More Than Half The Wells Had A Quiescence Event Or Fpdc Readings Of 0
FPDc [2, 13]: 0.0175
FPDc [2, 12]: 0.01997
FPDc [2, 9]: 0.0289
FPD measurement [2, 10]: More Than Half The Wells Had A Quiescence Event Or Fpdc Readings Of 0
FPDc [2, 10]: More Than Half The Wells Had A Quiescence Event Or Fpdc Readings Of 0
APDc [3, 13]: 43.63
FPD measurement [3, 13]: 43.63 FPDc
APDc [3, 12]: 43.37
FPD measurement [3, 12]: 43.37 FPDc
APDc [3, 9]: 124.5
FPD measurement [3, 9]: 124.5 FPDc
FPD measurement ([8]; 0.0001 µM): 1 Values Out Of 1 Were Excluded Due To Quiescence Or 0 Fpdc
FPDc ([8]; 0.0001 µM): 1 Values Out Of 1 Were Excluded Due To Quiescence Or 0 Fpdc
FPD measurement ([8]; 0.001 µM): 1 Values Out Of 1 Were Excluded Due To Quiescence Or 0 Fpdc
FPDc ([8]; 0.001 µM): 1 Values Out Of 1 Were Excluded Due To Quiescence Or 0 Fpdc
FPD measurement ([8]; 0.01 µM): 1 Values Out Of 1 Were Excluded Due To Quiescence Or 0 Fpdc
FPDc ([8]; 0.01 µM): 1 Values Out Of 1 Were Excluded Due To Quiescence Or 0 Fpdc
FPD measurement ([8]; 0.1 µM): 1 Values Out Of 1 Were Excluded Due To Quiescence Or 0 Fpdc
FPDc ([8]; 0.1 µM): 1 Values Out Of 1 Were Excluded Due To Quiescence Or 0 Fpdc
FPD measurement ([4]; 0.0001 µM): 5 Values Out Of 5 Were Excluded Due To Quiescence Or 0 Apdc
FPDc ([4]; 0.0001 µM): 68.56
FPD measurement ([4]; 0.001 µM): 5 Values Out Of 5 Were Excluded Due To Quiescence Or 0 Apdc
FPDc ([4]; 0.001 µM): 62.64
FPD measurement ([4]; 0.01 µM): 5 Values Out Of 5 Were Excluded Due To Quiescence Or 0 Apdc
FPDc ([4]; 0.01 µM): 5 Values Out Of 5 Were Excluded Due To Quiescence Or 0 Fpdc
FPD measurement ([4]; 0.1 µM): More Than Half The Wells Had A Quiescence Event Or Apdc Readings Of 0
FPDc ([4]; 0.1 µM): More Than Half The Wells Had A Quiescence Event Or Fpdc Readings Of 0

COCCc1ccc(OCC(O)CNC(C)C)cc1 (stereo unspecified) [METOPROLOL]
FPD measurement ([1]; 3.169 µM): 54.76 FPDc
FPDc ([1]; 3.169 µM): 54.76
FPD measurement ([1]; 10.01 µM): 55.07 FPDc
FPDc ([1]; 10.01 µM): 55.07
FPD measurement ([1]; 31.65 µM): 53.88 FPDc
FPDc ([1]; 31.65 µM): 53.88
FPD measurement ([1]; 100 µM): 71.03 FPDc
FPDc ([1]; 100 µM): 71.03
FPDc [2, 14]: 0.03359
FPDc [2, 15]: 0.03613
FPDc [2, 16]: 0.03258
FPD measurement [2, 17]: More Than Half The Wells Had A Quiescence Event Or Fpdc Readings Of 0
FPDc [2, 17]: More Than Half The Wells Had A Quiescence Event Or Fpdc Readings Of 0
APDc [3, 14]: 42.47
FPD measurement [3, 14]: 42.47 FPDc
APDc [3, 15]: 43.54
FPD measurement [3, 15]: 43.54 FPDc
APDc [3, 16]: 43.18
FPD measurement [3, 16]: 43.18 FPDc
APDc [3, 17]: 55.84
FPD measurement [3, 17]: 55.84 FPDc
FPD measurement ([8]; 3.169 µM): 1 Values Out Of 1 Were Excluded Due To Quiescence Or 0 Fpdc
FPDc ([8]; 3.169 µM): 1 Values Out Of 1 Were Excluded Due To Quiescence Or 0 Fpdc
FPD measurement ([8]; 10.01 µM): 1 Values Out Of 1 Were Excluded Due To Quiescence Or 0 Fpdc
FPDc ([8]; 10.01 µM): 1 Values Out Of 1 Were Excluded Due To Quiescence Or 0 Fpdc
FPD measurement ([8]; 31.65 µM): 1 Values Out Of 1 Were Excluded Due To Quiescence Or 0 Fpdc
FPDc ([8]; 31.65 µM): 1 Values Out Of 1 Were Excluded Due To Quiescence Or 0 Fpdc
FPD measurement ([8]; 100 µM): 1 Values Out Of 1 Were Excluded Due To Quiescence Or 0 Fpdc
FPDc ([8]; 100 µM): 1 Values Out Of 1 Were Excluded Due To Quiescence Or 0 Fpdc
FPDc ([4]; 3.169 µM): 61.11
FPDc ([4]; 10.01 µM): 74.38
FPDc ([4]; 31.65 µM): 72.23
FPDc ([4]; 100 µM): 68

Reference: ChEMBL document CHEMBL4295262, “Evaluation of the utility of stem-cell derived cardiomyocytes for drug proarrhythmic potential” (2019)
